Results published in ChEMBL document CHEMBL5537180, “Discovery of Novel Aminobutanoic Acid-Based ASCT2 Inhibitors for the Treatment of Non-Small-Cell Lung Cancer” (J Med Chem, 2024).
Activity calls are given as the source filed them. No cut-off for these calls is given here.

Assays:
Cell membrane = assay: Induction of mitochondrial membrane potential loss in human A549 cells assessed as […] aggregates at 5 uM incubated for 24 hrs by JC-1 staining based flow cytometry analysis (reference value: 93.8%); assay type: cell membranes
[1] = target: T1, Neutral amino acid transporter B(0) (Homo sapiens) (UniProt Q15758); assay: Inhibition of ASCT2 in HEK293 cells assessed as reduction in [13C]-Gln uptake at 50 uM relative to control; assay type: cell-based
T1 sequence (whole entry): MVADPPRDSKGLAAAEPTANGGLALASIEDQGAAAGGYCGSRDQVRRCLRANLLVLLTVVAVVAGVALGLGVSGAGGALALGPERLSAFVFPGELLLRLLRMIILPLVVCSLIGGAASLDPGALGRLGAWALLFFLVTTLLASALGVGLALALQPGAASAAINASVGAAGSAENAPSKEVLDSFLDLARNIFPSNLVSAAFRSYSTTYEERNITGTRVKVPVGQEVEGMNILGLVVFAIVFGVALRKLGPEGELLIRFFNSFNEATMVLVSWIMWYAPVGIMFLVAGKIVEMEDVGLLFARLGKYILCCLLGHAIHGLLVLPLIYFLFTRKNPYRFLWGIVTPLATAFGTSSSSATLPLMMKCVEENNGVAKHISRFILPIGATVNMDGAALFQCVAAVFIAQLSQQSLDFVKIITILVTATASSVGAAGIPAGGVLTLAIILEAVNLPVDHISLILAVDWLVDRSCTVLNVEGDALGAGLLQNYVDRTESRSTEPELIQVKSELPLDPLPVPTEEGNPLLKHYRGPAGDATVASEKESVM

A549 [2] = assay: Induction of apoptosis in human A549 cells assessed as early apoptotic cells at 5 uM measured after 24 hrs by annexin-V/PI staining based flow cytometry analysis (reference value: 1.56%); assay type: functional
A549 [3] = assay: Induction of apoptosis in human A549 cells assessed as late apoptotic cells at 5 uM measured after 24 hrs by annexin-V/PI staining based flow cytometry analysis (reference value: 1.34%); assay type: functional
A549 [4] = assay: Induction of apoptosis in human A549 cells assessed as necrotic cells at 5 uM measured after 24 hrs by annexin-V/PI staining based flow cytometry analysis (reference value: 0.13%); assay type: functional
A549 [5] = assay: Induction of apoptosis in human A549 cells assessed as early apoptotic cells at 10 uM measured after 24 hrs by annexin-V/PI staining based flow cytometry analysis (reference value: 1.56%); assay type: functional
[6] = Bioavailability in Sprague-Dawley rat at 10 mg/kg, ip incubated for 24 hrs by LC-MS/MS analysis; assay type: ADME, organism-based; conditions: in vivo
A549 [7] = assay: Induction of apoptosis in human A549 cells assessed as necrotic cells at 10 uM measured after 24 hrs by annexin-V/PI staining based flow cytometry analysis (reference value: 0.13%); assay type: functional
A549 [8] = assay: Induction of apoptosis in human A549 cells assessed as viable cells at 10 uM measured after 24 hrs by annexin-V/PI staining based flow cytometry analysis (reference value: 97.0%); assay type: functional; conditions: read-out: Activity
[9] = target: T2, Sodium-coupled neutral amino acid symporter 1 (Homo sapiens) (UniProt Q9H2H9); assay: Inhibition of SNAT1 (unknown origin) overexpressed in human A549 cells assessed as reduction in [13C]-Gln uptake preincubated for 5 mins followed by substrate addition and measured after 15 mins; assay type: cell-based; conditions: time 20.0 min
T2 sequence (whole entry): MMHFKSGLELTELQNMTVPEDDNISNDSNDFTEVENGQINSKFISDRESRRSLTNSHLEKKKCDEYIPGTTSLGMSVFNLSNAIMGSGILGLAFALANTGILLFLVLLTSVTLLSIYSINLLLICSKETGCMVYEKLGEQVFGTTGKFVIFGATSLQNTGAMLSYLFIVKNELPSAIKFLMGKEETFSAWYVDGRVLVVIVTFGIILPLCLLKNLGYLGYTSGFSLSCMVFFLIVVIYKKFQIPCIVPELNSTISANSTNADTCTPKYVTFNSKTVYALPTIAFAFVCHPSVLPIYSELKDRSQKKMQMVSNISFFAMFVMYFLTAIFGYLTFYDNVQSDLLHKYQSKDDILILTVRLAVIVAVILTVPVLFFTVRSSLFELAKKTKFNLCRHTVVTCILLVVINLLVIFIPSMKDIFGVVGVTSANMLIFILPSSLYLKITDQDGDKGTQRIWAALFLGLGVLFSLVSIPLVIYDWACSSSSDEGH

A549 [10] = assay: Induction of apoptosis in human A549 cells assessed as viable cells at 5 uM measured after 24 hrs by annexin-V/PI staining based flow cytometry analysis (reference value: 97.0%); assay type: functional; conditions: read-out: Activity
A549 [11] = assay: Induction of apoptosis in human A549 cells assessed as late apoptotic cells at 10 uM measured after 24 hrs by annexin-V/PI staining based flow cytometry analysis (reference value: 1.34%); assay type: functional

| Activity (Cell membrane) [%] | inhibition [1] [%] | bioavailability [6] [%] | inhibition [9] | SMILES | Activity (A549 [2]) [%] | Activity (A549 [3]) [%] | Activity (A549 [4]) [%] | Activity (A549 [5]) [%] | Activity (A549 [7]) [%] | viability at 10 µM (A549 [8]) [%] | viability at 5 µM (A549 [10]) [%] | Activity (A549 [11]) [%] |
| --- | --- | --- | --- | --- | --- | --- | --- | --- | --- | --- | --- | --- |
| 76.1 | 98.3 |  |  | CC(C)(C)c1ccc(OCC#Cc2ccccc2)c(CN(CC[C@H](N)C(=O)O)Cc2cc(C(C)(C)C)ccc2OCC#Cc2ccccc2)c1 |  |  |  |  |  |  |  |  |
| 87.8 | 93.2 | 77 | Active | N[C@@H](CCN(Cc1ccccc1OCC#Cc1ccc(Cl)cc1)Cc1ccccc1OCC#Cc1ccc(Cl)cc1)C(=O)O | 2.47 | 6.44 | 0.79 | 6.93 | 1.4 | 84.4 | 90.3 | 7.29 |
